Assay [1] deals with SARS-CoV-2 variant B.1.351. Nature of the assay: microbe, parasite or virus in culture. Type of assay: cell-based.
Assay [2] deals with SARS-CoV-2 variant B.1.617.2. Nature of the assay: microbe, parasite or virus in culture. Type of assay: cell-based.
The subject of assay [3] is SARS-CoV-2 B.1.617.2 variants. Particulars: in vivo.
Another assay relates to SARS-CoV-2 variants. Briefly: microbe, parasite or virus in culture. Type of assay: cell-based.
Setting [4] is: Severe acute respiratory syndrome coronavirus 2, Vero C1008, 48 h.

Like-named read-outs stand apart in the source and are kept apart here.

`CCCCCCCCC(=O)OC[C@H]1O[C@@](C#N)(c2ccc3c(N)ncnn23)[C@H](O)[C@@H]1O` [ATV010, ((2R,3S,4R,5R)-5-(4-aminopyrrolo[2,1-f][1,2,4]triazin-7-yl)-5-cyano-3,4-dihydroxytetrahydrofuran-2-yl)methyl nonanoate]: the results for the IC50 in assay [1] (setting [4]) and in assay [2] (setting [4]) were 1 µM and 0.455 µM, respectively.

Consider `CC(C)C(=O)OC[C@H]1O[C@@](C#N)(c2ccc3c(N)ncnn23)[C@H](O)[C@@H]1O` [ATV006, ((2R,3S,4R,5R)-5-(4-aminopyrrolo[2,1-f][1,2,4]triazin-7-yl)-5-cyano-3,4-dihydroxytetrahydrofuran-2-yl)methyl isobutyrate], for which half-maximal inhibition in assay [1] (setting [4]) (IC50) required 1.13 µM. Moreover, in assay [3], the “amount of viral genome (N gene) in lung tissue” value is “significantly lower than that in the control group” and the “amount of viral subgenome (subgenomic N) in lung tissue” value is “significantly lower than that in the control group”. The IC50 (in general, the concentration that inhibits the measured activity by half) in assay [2] (setting [4]) worked out at 0.349 µM.

For `N#C[C@@]1(c2ccc3c(N)ncnn23)O[C@H](COC(=O)C2CCCCC2)[C@@H](O)[C@H]1O` [ATV014, ((2R,3S,4R,5R)-5-(4-aminopyrrolo[2,1-f][1,2,4]triazin-7-yl)-5-cyano-3,4-dihydroxytetrahydrofuran-2-yl)methyl cyclohexanecarboxylate], the IC50 was 0.248 µM in assay [1], 0.21 µM in assay [2] and < 0.34 µM in the assay with SARS-CoV-2 variants (Severe acute respiratory syndrome coronavirus 2). In addition, the “anti-SARS-CoV-2 activity relative to GS-441524” value in the assay with SARS-CoV-2 variants (summary statement, in words) was “twice that of GS-441524”.

Turning to `N#C[C@@]1(c2ccc3c(N)ncnn23)O[C@H](COC(=O)c2ccccc2)[C@@H](O)[C@H]1O` [ATV013, ((2R,3S,4R,5R)-5-(4-aminopyrrolo[2,1-f][1,2,4]triazin-7-yl)-5-cyano-3,4-dihydroxytetrahydrofuran-2-yl)methyl benzoate], the values for the IC50 in assay [1] (setting [4]) and in assay [2] (setting [4]) were 2.43 µM and 0.965 µM, respectively.

Consider `CCC(CC)C(=O)OC[C@H]1O[C@@](C#N)(c2ccc3c(N)ncnn23)[C@H](O)[C@@H]1O` [ATV011, ((2R,3S,4R,5R)-5-(4-aminopyrrolo[2,1-f][1,2,4]triazin-7-yl)-5-cyano-3,4-dihydroxytetrahydrofuran-2-yl)methyl 2-ethylbutanoate], for which the IC50 in assay [1] (setting [4]) is 2.3 µM; in assay [2] (setting [4]) it was 0.408 µM.

Consider `CC(C)(C)C(=O)OC[C@H]1O[C@@](C#N)(c2ccc3c(N)ncnn23)[C@H](O)[C@@H]1O` [ATV018, ((2R,3S,4R,5R)-5-(4-aminopyrrolo[2,1-f][1,2,4]triazin-7-yl)-5-cyano-3,4-dihydroxytetrahydrofuran-2-yl)methyl pivalate], for which the figures for the IC50 in assay [1] (setting [4]) and in assay [2] (setting [4]) were 0.785 µM and 0.229 µM, respectively.

As to `CCCC(=O)OC[C@H]1O[C@@](C#N)(c2ccc3c(N)ncnn23)[C@H](O)[C@@H]1O` [ATV009, ((2R,3S,4R,5R)-5-(4-aminopyrrolo[2,1-f][1,2,4]triazin-7-yl)-5-cyano-3,4-dihydroxytetrahydrofuran-2-yl)methyl butyrate], the half-inhibitory concentration (IC50) is 1.38 µM in assay [1] (setting [4]) and 0.492 µM in assay [2] (setting [4]).

`N#C[C@@]1(c2ccc3c(N)ncnn23)O[C@H](CO)[C@@H](O)[C@H]1O` [GS-441524, reference compound]: the IC50 in assay [1] is 1.78 µM; in assay [2], 1.65 µM.

On to `CC(C)CC(=O)OC[C@H]1O[C@@](C#N)(c2ccc3c(N)ncnn23)[C@H](O)[C@@H]1O` [ATV017, ((2R,3S,4R,5R)-5-(4-aminopyrrolo[2,1-f][1,2,4]triazin-7-yl)-5-cyano-3,4-dihydroxytetrahydrofuran-2-yl)methyl 3-methylbutanoate], for which the IC50 in assay [1] (setting [4]) came out at 2.85 µM; in assay [2] (setting [4]), 0.428 µM.

Values taken from patent US20240317754A1 (priority 2020, published 2024).
